Key:
Assay in all cases: relative viability (nuclei count vs DMSO), 5 days (fraction); higher = more cells survive
[1] = compound: CN[C@@H]1C[C@H]2O[C@@](C)([C@@H]1OC)n1c3ccccc3c3c4c(c5c6ccccc6n2c5c31)C(=O)NC4 [Staurosporine] + CS(=O)(=O)CCNCc1ccc(-c2ccc3ncnc(Nc4ccc(OCc5cccc(F)c5)c(Cl)c4)c3c2)o1 [Lapatinib] (partner 2 µM)
Method in brief: (§1)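 Relative viability divides the nuclei count in treated wells by that in vehicle wells. Lung cancer cell lines were seeded in 1536-well plates, dosed by pin tool the next day, and fixed and stained after 5 days in one step with final 0.05% Triton X-100, 1% formaldehyde and 1 ug/ml Hoechst. Dosing was a single drug or a fixed anchor-drug dose plus five library-drug doses (not always all listed) in √10 steps, and values are medians of duplicate plates imaged at 4×.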

[2] = compound: O=c1[nH]cc(F)c(=O)[nH]1 [5-Fluorouracil] + C[C@]1(O)C[C@@H](c2nc(-c3ccc4ccc(-c5ccccc5)nc4c3)c3c(N)nccn32)C1 [Linsitinib] (partner 1 µM)
Method in brief: as §1

[3] = compound: CC1=C(CC(=O)O)c2cc(F)ccc2/C1=C\c1ccc([S+](C)[O-])cc1 [Sulindac] + CS(=O)(=O)N1CCN(Cc2cc3nc(-c4cccc5[nH]ncc45)nc(N4CCOCC4)c3s2)CC1 [Pictilisib] (partner 1 µM)
Method in brief: as §1

[4] = compound: O=c1[nH]cc(F)c(=O)[nH]1 [5-Fluorouracil] + CC1(C)CCC(c2ccc(Cl)cc2)=C(CN2CCN(c3ccc(C(=O)NS(=O)(=O)c4ccc(N[C@H](CCN5CCOCC5)CSc5ccccc5)c(S(=O)(=O)C(F)(F)F)c4)cc3)CC2)C1 [Navitoclax] (partner 0.5 µM)
Method in brief: as §1

Cell Line | relative viability ([1]; first compound 0.005 µM) | relative viability ([1]; first compound 0.01581 µM) | relative viability ([1]; first compound 0.05 µM) | relative viability ([1]; first compound 0.1581 µM) | relative viability ([1]; first compound 0.5 µM) | relative viability ([2]; first compound 0.02 µM) | relative viability ([2]; first compound 0.2 µM) | relative viability ([2]; first compound 0.6325 µM) | relative viability ([2]; first compound 2 µM) | relative viability ([3]; first compound 0.08 µM) | relative viability ([3]; first compound 0.253 µM) | relative viability ([3]; first compound 0.8 µM) | relative viability ([3]; first compound 2.53 µM) | relative viability ([3]; first compound 8 µM) | relative viability ([4]; first compound 0.02 µM) | relative viability ([4]; first compound 0.2 µM) | relative viability ([4]; first compound 0.6325 µM) | relative viability ([4]; first compound 2 µM)
SW 1573 | 1.01 | 1.07 | 0.417 | 0.355 | 0.186 | 0.734 | 0.917 | 0.782 | 0.483 | 0.508 | 0.632 | 0.451 | 0.511 | 0.605 | 1.02 | 1.13 | 0.782 | 0.501
NCI-H1793 | 0.829 | 0.281 | 0.527 | 0.216 | 0.18 | 0.691 | 0.92 | 0.815 | 0.496 | 0.275 | 0.329 | 0.271 | 0.351 | 0.344 | 0.385 | 0.53 | 0.403 | 0.289
SK-LU-1 | 0.611 | 0.266 | 0.153 | 0.162 | 0.16 | 1.23 | 1.08 | 1.13 | 0.941 | 0.582 | 0.592 | – | 0.49 | 0.703 | 1.1 | 1.2 | 0.796 | 0.753
H3255 | 0.138 | 0.0852 | 0.124 | 0.142 | 0.137 | 0.99 | 1.07 | 0.853 | 0.579 | 0.486 | 0.463 | 0.464 | 0.562 | 0.524 | 0.566 | 0.795 | 0.454 | 0.419
EMC-BAC-2 | 0.427 | 0.498 | 0.178 | 0.188 | 0.167 | 0.865 | 0.873 | 0.846 | 0.8 | 0.524 | 0.58 | 0.485 | 0.542 | 0.596 | 1.19 | 1.2 | 1.25 | 1.19
CAL-12T | 0.356 | 0.198 | 0.214 | 0.192 | 0.194 | 0.487 | 0.87 | 0.673 | 0.412 | 0.442 | 0.374 | 0.401 | 0.324 | 0.616 | 1.13 | 1.25 | 0.974 | 0.489
NCI-H727 | 0.666 | 0.324 | 0.307 | 0.388 | 0.181 | 0.272 | 0.443 | 0.31 | 0.332 | 0.46 | 0.252 | 0.381 | 0.404 | 0.349 | 0.369 | 0.41 | 0.527 | 0.315
SK-MES-1 | 0.444 | 0.31 | 0.311 | 0.205 | 0.185 | 1.07 | 0.799 | 0.433 | 0.337 | 0.368 | 0.427 | 0.323 | 0.362 | 0.459 | 1.2 | 0.789 | 0.474 | 0.373
EBC-1 | 0.187 | 0.177 | 0.189 | 0.122 | 0.127 | 0.859 | 0.928 | 0.814 | 0.605 | 0.382 | 0.422 | 0.343 | 0.342 | 0.49 | 0.342 | 0.405 | 0.44 | 0.339
NCI-H1355 | 0.96 | 0.557 | 0.272 | 0.188 | 0.193 | 0.639 | 0.681 | 0.398 | 0.314 | 0.458 | 0.407 | 0.36 | 0.39 | 0.448 | 0.699 | 0.651 | 0.353 | 0.241
PC-3 [JPC-3] | 0.46 | – | 0.429 | 0.287 | 0.307 | 0.947 | 0.949 | 0.888 | 0.698 | 0.886 | 0.81 | 0.55 | 0.753 | 0.857 | 0.793 | 0.759 | 0.767 | 0.63
LK-2 | 1.31 | 0.924 | – | 0.346 | 0.178 | 0.767 | 0.5 | 0.584 | 0.334 | 0.551 | 0.675 | – | – | 0.558 | 1.06 | 0.939 | 0.652 | 0.603
IA-LM | 0.194 | 0.194 | 0.158 | 0.208 | 0.074 | 0.597 | 0.485 | 0.175 | 0.213 | 0.439 | 0.371 | – | 0.352 | 0.419 | 0.934 | 0.328 | 0.179 | 0.178
NCI-H1734 | 0.958 | 0.322 | 0.31 | 0.121 | 0.136 | 0.762 | 1.05 | 0.706 | 0.546 | 0.466 | 0.498 | 0.413 | 0.48 | 0.515 | 0.795 | 0.932 | 0.765 | 0.428
NCI-H838 | 0.25 | 0.164 | 0.211 | 0.134 | 0.103 | 1.01 | 1.06 | 0.578 | 0.312 | 0.519 | 0.466 | 0.377 | 0.426 | 0.603 | 1.14 | 1.06 | 0.572 | 0.28
NCI-H23 | 0.886 | 0.184 | 0.357 | 0.172 | 0.134 | 0.488 | 0.631 | 0.444 | 0.271 | 0.423 | 0.525 | 0.387 | 0.536 | 0.517 | 0.807 | 0.845 | 0.653 | 0.338
NCI-H1395 | 0.833 | 0.551 | 0.487 | 0.356 | 0.376 | 0.884 | 1.19 | 1.03 | 1.25 | 0.705 | 0.603 | 0.872 | 0.527 | 0.879 | 0.997 | 1.21 | 1.07 | 1.12
NCI-H647 | 0.603 | 0.262 | 0.253 | 0.0661 | 0.0597 | 1.05 | 1.32 | 1.16 | 0.701 | 0.49 | 0.422 | 0.435 | 0.419 | 0.735 | 1.24 | 1.06 | 1.09 | 0.729
